Tested on: MV-4-11 cells
Experiment: Gene expression microarray analysis (Affymetrix PrimeView) and GSEA
Assay type: cell-based, human
Parameters: RFU PODN (11730768_x_at) / Fold change /veh PODN (11730768_x_at) / RFU LINC00158 (11744669_a_at) / Fold change /veh LINC00158 (11744669_a_at) / RFU DUSP10 (11751237_a_at) / Fold change /veh DUSP10 (11751237_a_at) / RFU ID3 (11757404_x_at) / Fold change /veh ID3 (11757404_x_at) / RFU PLEKHG5 (11737974_s_at) / Fold change /veh PLEKHG5 (11737974_s_at) / RFU LRRC4B (11730491_at) / Fold change /veh LRRC4B (11730491_at) / RFU GIMAP4 (11747438_a_at) / Fold change /veh GIMAP4 (11747438_a_at) / RFU KRT8 (11758183_x_at) / Fold change /veh KRT8 (11758183_x_at) / RFU CNN1 (11734310_a_at) / Fold change /veh CNN1 (11734310_a_at) / RFU VPS37D (11726825_at) / Fold change /veh VPS37D (11726825_at) / RFU C10orf10 (11716522_x_at) / Fold change /veh C10orf10 (11716522_x_at) / RFU KIR2DL2 /// KIR2DL4 /// KIR2DL5A /// KIR2DL5B /// KIR2DS1 /// KIR2DS2 /// KIR2DS3 /// KIR2DS4 /// KIR3DL3 /// KIR3DL3 /// KIR3DS1 (11738374_at) / Fold change /veh KIR2DL2 /// KIR2DL4 /// KIR2DL5A /// KIR2DL5B /// KIR2DS1 /// KIR2DS2 /// KIR2DS3 /// KIR2DS4 /// KIR3DL3 /// KIR3DL3 /// KIR3DS1 (11738374_at) / RFU C1QL1 (11718748_at) / Fold change /veh C1QL1 (11718748_at) / RFU TMPRSS4 (11747572_a_at) / Fold change /veh TMPRSS4 (11747572_a_at) / RFU HAMP (11756126_x_at) / Fold change /veh HAMP (11756126_x_at) / RFU RNFT2 (11725882_a_at) / Fold change /veh RNFT2 (11725882_a_at) / RFU NR4A2 (11747474_a_at) / Fold change /veh NR4A2 (11747474_a_at) / RFU ABCC12 (11746883_a_at) / Fold change /veh ABCC12 (11746883_a_at) / RFU TMEM136 (11760407_x_at) / Fold change /veh TMEM136 (11760407_x_at) / RFU CLDN22 /// WWC2 (11732394_at) / Fold change /veh CLDN22 /// WWC2 (11732394_at) / RFU HLA-DPB1 (11760878_x_at) / Fold change /veh HLA-DPB1 (11760878_x_at) / RFU SPINT1 (11716480_a_at) / Fold change /veh SPINT1 (11716480_a_at) / RFU GAP43 (11754022_s_at) / Fold change /veh GAP43 (11754022_s_at) / RFU A4GNT (11735810_at) / Fold change /veh A4GNT (11735810_at) / RFU PRB3 (11715151_x_at) / Fold change /veh PRB3 (11715151_x_at) / RFU TUBB4B (11761932_at) / Fold change /veh TUBB4B (11761932_at) / RFU CAPN14 (11732068_a_at) / Fold change /veh CAPN14 (11732068_a_at) / RFU TMCC2 (11721928_a_at) / Fold change /veh TMCC2 (11721928_a_at) / RFU IRGQ (11745062_a_at) / Fold change /veh IRGQ (11745062_a_at) / RFU FAM174B (11720279_a_at) / Fold change /veh FAM174B (11720279_a_at) / RFU TMPRSS4 (11748680_a_at) / Fold change /veh TMPRSS4 (11748680_a_at) / RFU FAM212B (11763350_a_at) / Fold change /veh FAM212B (11763350_a_at) / RFU PLEKHG5 (11743358_a_at) / Fold change /veh PLEKHG5 (11743358_a_at) / RFU ZSCAN30 (11745921_a_at) / Fold change /veh ZSCAN30 (11745921_a_at) / RFU CMKLR1 (11741424_a_at) / Fold change /veh CMKLR1 (11741424_a_at) / RFU LOC101060620 /// MAPK8IP1 (11723275_at) / Fold change /veh LOC101060620 /// MAPK8IP1 (11723275_at) / RFU SPTSSB (11747773_x_at) / Fold change /veh SPTSSB (11747773_x_at) / RFU PRSS12 (11739890_at) / Fold change /veh PRSS12 (11739890_at) / RFU BIN1 (11741810_x_at) / Fold change /veh BIN1 (11741810_x_at) / RFU WNT11 (11732464_a_at) / Fold change /veh WNT11 (11732464_a_at) / RFU C10orf10 (11716521_a_at) / Fold change /veh C10orf10 (11716521_a_at) / RFU C5orf56 (11738089_at) / Fold change /veh C5orf56 (11738089_at) / RFU CYB561 (11721691_x_at) / Fold change /veh CYB561 (11721691_x_at) / RFU ANKRD19P (11752326_a_at) / Fold change /veh ANKRD19P (11752326_a_at) / RFU OR2T12 /// OR2T33 /// OR2T8 (11738714_s_at) / Fold change /veh OR2T12 /// OR2T33 /// OR2T8 (11738714_s_at) / RFU VCAN (11748164_a_at) / Fold change /veh VCAN (11748164_a_at) / RFU JSRP1 (11732532_at) / Fold change /veh JSRP1 (11732532_at) / RFU KRTAP10-11 (11738290_x_at) / Fold change /veh KRTAP10-11 (11738290_x_at) / RFU MYO3A (11730013_a_at) / Fold change /veh MYO3A (11730013_a_at) / RFU EBF3 (11725865_a_at) / Fold change /veh EBF3 (11725865_a_at) / RFU CAMK2N1 (11719241_x_at) / Fold change /veh CAMK2N1 (11719241_x_at) / RFU C5orf56 (11738088_a_at) / Fold change /veh C5orf56 (11738088_a_at) / RFU OLFML3 (11715873_a_at) / Fold change /veh OLFML3 (11715873_a_at) / RFU LOC100653217 /// NTM (11731650_a_at) / Fold change /veh LOC100653217 /// NTM (11731650_a_at) / RFU MAPK11 (11762145_a_at) / Fold change /veh MAPK11 (11762145_a_at) / RFU FIZ1 (11724087_x_at) / Fold change /veh FIZ1 (11724087_x_at) / RFU OASL (11726364_x_at) / Fold change /veh OASL (11726364_x_at) / RFU SOX15 (11748057_x_at) / Fold change /veh SOX15 (11748057_x_at) / RFU CD79A (11719716_a_at) / Fold change /veh CD79A (11719716_a_at) / RFU HIST1H1D (11736915_at) / Fold change /veh HIST1H1D (11736915_at) / RFU CASKIN2 (11723855_a_at) / Fold change /veh CASKIN2 (11723855_a_at) / RFU LOC730098 (11760151_x_at) / Fold change /veh LOC730098 (11760151_x_at) / RFU OR4N2 (11742367_at) / Fold change /veh OR4N2 (11742367_at) / RFU PRRT2 (11749266_a_at) / Fold change /veh PRRT2 (11749266_a_at) / RFU SNX32 (11753110_a_at) / Fold change /veh SNX32 (11753110_a_at) / RFU CDHR5 (11726645_a_at) / Fold change /veh CDHR5 (11726645_a_at) / RFU RCAN1 (11760418_a_at) / Fold change /veh RCAN1 (11760418_a_at) / RFU FAM167A (11723789_a_at) / Fold change /veh FAM167A (11723789_a_at) / RFU FAM26E (11764081_at) / Fold change /veh FAM26E (11764081_at) / RFU ISYNA1 (11749810_s_at) / Fold change /veh ISYNA1 (11749810_s_at) / RFU ACY1 (11761880_at) / Fold change /veh ACY1 (11761880_at) / RFU 11764098_at / Fold change /veh 11764098_at / RFU SAMD14 (11745864_x_at) / Fold change /veh SAMD14 (11745864_x_at) / RFU NPB (11741838_a_at) / Fold change /veh NPB (11741838_a_at) / RFU TMPRSS6 (11731388_a_at) / Fold change /veh TMPRSS6 (11731388_a_at) / RFU KRTAP10-2 (11738614_at) / Fold change /veh KRTAP10-2 (11738614_at) / RFU ARHGAP8 /// PRR5-ARHGAP8 (11727945_x_at) / Fold change /veh ARHGAP8 /// PRR5-ARHGAP8 (11727945_x_at) / RFU KRTAP5-7 /// NADSYN1 (11734609_at) / Fold change /veh KRTAP5-7 /// NADSYN1 (11734609_at) / RFU RASL12 (11751679_a_at) / Fold change /veh RASL12 (11751679_a_at) / RFU CDKN2B (11736163_a_at) / Fold change /veh CDKN2B (11736163_a_at) / RFU PRF1 (11729649_at) / Fold change /veh PRF1 (11729649_at) / RFU, ZNF638 /// ZNF638-IT1 / Fold change vs veh, ZNF638 /// ZNF638-IT1 / RFU, PANK3 / Fold change vs veh, PANK3 / RFU, SH3YL1 / Fold change vs veh, SH3YL1 / RFU, ZEB2 / Fold change vs veh, ZEB2 / RFU, NRIP1 / Fold change vs veh, NRIP1 / RFU, PTTG1IP / Fold change vs veh, PTTG1IP / RFU, CAPN2 / Fold change vs veh, CAPN2 / RFU, MED14 / Fold change vs veh, MED14 / RFU, SNORA58 / Fold change vs veh, SNORA58 / RFU, C1orf63 / Fold change vs veh, C1orf63 / RFU, LRRFIP1 / Fold change vs veh, LRRFIP1 / RFU, NDUFAF7 / Fold change vs veh, NDUFAF7 / RFU, SLC12A2 / Fold change vs veh, SLC12A2 / RFU, IBTK / Fold change vs veh, IBTK / RFU, ESF1 / Fold change vs veh, ESF1 / Fold change vs veh, TMEM50B / RFU, TAOK1 / Fold change vs veh, TAOK1 / RFU, ACBD3 / Fold change vs veh, ACBD3 / RFU, TMA16 / Fold change vs veh, TMA16 / RFU, RWDD3 / Fold change vs veh, RWDD3 / RFU, BCAT1 / Fold change vs veh, BCAT1 / RFU, EDEM3 / Fold change vs veh, EDEM3 / RFU, TMEM33 / Fold change vs veh, TMEM33 / RFU, WDR75 / Fold change vs veh, WDR75 / RFU, AHCTF1 / Fold change vs veh, AHCTF1 / RFU, TFRC / Fold change vs veh, TFRC / RFU, ZDHHC17 / Fold change vs veh, ZDHHC17 / RFU, NOM1 / Fold change vs veh, NOM1 / RFU, ARL8B / Fold change vs veh, ARL8B / RFU, ZBTB11 / Fold change vs veh, ZBTB11 / RFU, TAMM41 / Fold change vs veh, TAMM41 / RFU, KIAA1704 /// LOC100996395 / Fold change vs veh, KIAA1704 /// LOC100996395 / RFU, ING1 / Fold change vs veh, ING1 / RFU, TRMT61B / Fold change vs veh, TRMT61B / RFU, FUBP3 / Fold change vs veh, FUBP3 / RFU, TP53 / Fold change vs veh, TP53 / RFU, TNKS2 / Fold change vs veh, TNKS2 / RFU, ZFP14 / Fold change vs veh, ZFP14 / RFU, ACTR2 / Fold change vs veh, ACTR2 / RFU, PPP3R1 / Fold change vs veh, PPP3R1 / RFU, PIK3R1 / Fold change vs veh, PIK3R1 / RFU, HNRNPA1 / Fold change vs veh, HNRNPA1 / RFU, RNF170 / Fold change vs veh, RNF170 / RFU, ZNF28 / Fold change vs veh, ZNF28 / RFU, RNGTT / Fold change vs veh, RNGTT / RFU, OGT / Fold change vs veh, OGT / RFU, BRD1 / Fold change vs veh, BRD1 / RFU, MARS / Fold change vs veh, MARS / RFU, ZNF655 / Fold change vs veh, ZNF655 / RFU, FAHD1 / Fold change vs veh, FAHD1 / RFU, BDP1 / Fold change vs veh, BDP1 / RFU, LRRCC1 / Fold change vs veh, LRRCC1 / RFU, ARID1A / Fold change vs veh, ARID1A / RFU, ZNF146 / Fold change vs veh, ZNF146 / RFU, ZNF330 / Fold change vs veh, ZNF330 / RFU, GPN3 / Fold change vs veh, GPN3 / RFU, C9orf123 / Fold change vs veh, C9orf123 / RFU, N4BP2L2 / Fold change vs veh, N4BP2L2 / RFU, ARFIP1 / Fold change vs veh, ARFIP1 / RFU, FAM179B / Fold change vs veh, FAM179B / RFU, BCL10 / Fold change vs veh, BCL10 / RFU, UHRF1BP1L / Fold change vs veh, UHRF1BP1L / RFU, BET1 / Fold change vs veh, BET1 / RFU, CNOT2 / Fold change vs veh, CNOT2 / RFU, ZNF268 / Fold change vs veh, ZNF268 / Fold change vs veh, ZNF507 / RFU, DGCR2 / Fold change vs veh, DGCR2 / RFU, WDSUB1 / Fold change vs veh, WDSUB1 / Fold change vs veh, HSP90B1 /// MIR3652 / RFU, ADSS / Fold change vs veh, ADSS / RFU, GK / Fold change vs veh, GK / RFU, ZNF148 / Fold change vs veh, ZNF148 / RFU, TAF9 / Fold change vs veh, TAF9 / RFU, SLC1A5 / Fold change vs veh, SLC1A5 / RFU, SLMO2 / Fold change vs veh, SLMO2 / RFU, ABCC4 / Fold change vs veh, ABCC4 / RFU, LOC101060439 /// RAP1B / Fold change vs veh, LOC101060439 /// RAP1B / RFU, RFX7 / Fold change vs veh, RFX7 / RFU, GTPBP10 / Fold change vs veh, GTPBP10 / RFU, CNEP1R1 / Fold change vs veh, CNEP1R1 / RFU, BIVM-ERCC5 /// ERCC5 / Fold change vs veh, BIVM-ERCC5 /// ERCC5 / RFU, ILF3 / Fold change vs veh, ILF3 / RFU 11762660_at / Fold change /veh 11762660_at / RFU VCAN (11757783_s_at) / Fold change /veh VCAN (11757783_s_at) / RFU DDX43 (11728927_at) / Fold change /veh DDX43 (11728927_at) / RFU KRT8 (11758188_x_at) / Fold change /veh KRT8 (11758188_x_at) / RFU NKD1 (11759106_at) / Fold change /veh NKD1 (11759106_at) / RFU SRD5A1 (11742802_a_at) / Fold change /veh SRD5A1 (11742802_a_at) / RFU TPSAB1 /// TPSB2 (11721975_s_at) / Fold change /veh TPSAB1 /// TPSB2 (11721975_s_at) / RFU GSTM3 (11746129_a_at) / Fold change /veh GSTM3 (11746129_a_at) / RFU IL23R (11737362_x_at) / Fold change /veh IL23R (11737362_x_at) / RFU TMEM51 (11727254_a_at) / Fold change /veh TMEM51 (11727254_a_at) / RFU PIWIL2 (11732686_x_at) / Fold change /veh PIWIL2 (11732686_x_at) / RFU ORM1 (11744905_x_at) / Fold change /veh ORM1 (11744905_x_at) / RFU CCDC152 (11743942_at) / Fold change /veh CCDC152 (11743942_at) / RFU ECM1 (11717891_a_at) / Fold change /veh ECM1 (11717891_a_at) / RFU IL23R (11748794_a_at) / Fold change /veh IL23R (11748794_a_at) / RFU TNFAIP8L3 (11732012_x_at) / Fold change /veh TNFAIP8L3 (11732012_x_at) / RFU MBOAT4 (11741988_at) / Fold change /veh MBOAT4 (11741988_at) / RFU 11764193_at / Fold change /veh 11764193_at / RFU TMEM53 (11763286_at) / Fold change /veh TMEM53 (11763286_at) / RFU MAGEB2 (11727129_at) / Fold change /veh MAGEB2 (11727129_at) / RFU TMEM200A (11744735_a_at) / Fold change /veh TMEM200A (11744735_a_at) / RFU CCDC152 (11751479_a_at) / Fold change /veh CCDC152 (11751479_a_at) / RFU FAM211A (11726209_a_at) / Fold change /veh FAM211A (11726209_a_at) / RFU RGS16 (11746705_a_at) / Fold change /veh RGS16 (11746705_a_at) / RFU VCAN (11755009_s_at) / Fold change /veh VCAN (11755009_s_at) / RFU RHOB (11743442_s_at) / Fold change /veh RHOB (11743442_s_at) / RFU RGS16 (11720943_a_at) / Fold change /veh RGS16 (11720943_a_at) / RFU RGS16 (11720944_at) / Fold change /veh RGS16 (11720944_at) / RFU, VPS4B / Fold change vs veh, VPS4B / RFU, CREB1 / Fold change vs veh, CREB1 / RFU, DNAJC13 / Fold change vs veh, DNAJC13 / RFU, GNAQ / Fold change vs veh, GNAQ / RFU, CDK5R1 / Fold change vs veh, CDK5R1 / RFU, ZRANB3 / Fold change vs veh, ZRANB3 / RFU, CUL4A / Fold change vs veh, CUL4A / RFU, CCNY / Fold change vs veh, CCNY / RFU, UFL1 / Fold change vs veh, UFL1 / RFU, COG3 / Fold change vs veh, COG3 / RFU, DIAPH2 / Fold change vs veh, DIAPH2 / RFU, SKA2 / Fold change vs veh, SKA2 / RFU, AFF3 / Fold change vs veh, AFF3 / RFU, LMF1 / Fold change vs veh, LMF1 / RFU, IPO11 / Fold change vs veh, IPO11 / RFU, DFFB / Fold change vs veh, DFFB / RFU, FOXP1 / Fold change vs veh, FOXP1 / RFU, CARD8 / Fold change vs veh, CARD8 / RFU, STRN3 / Fold change vs veh, STRN3 / RFU, ADK / Fold change vs veh, ADK / RFU, RASSF2 / Fold change vs veh, RASSF2 / RFU, WIPF1 / Fold change vs veh, WIPF1 / RFU, LARP1B / Fold change vs veh, LARP1B / RFU, RASA1 / Fold change vs veh, RASA1 / RFU, RB1 / Fold change vs veh, RB1 / RFU, PPFIA1 / Fold change vs veh, PPFIA1 / RFU, MAT2A / Fold change vs veh, MAT2A / RFU, CCT5 / Fold change vs veh, CCT5 / RFU, WDR92 / Fold change vs veh, WDR92 / RFU, CUX1 / Fold change vs veh, CUX1 / RFU, TTC7A / Fold change vs veh, TTC7A / RFU, TMEM135 / Fold change vs veh, TMEM135 / RFU, DEPTOR / Fold change vs veh, DEPTOR / RFU, CPM / Fold change vs veh, CPM / RFU, DNAJB6 / Fold change vs veh, DNAJB6 / RFU, CACNA2D3 / Fold change vs veh, CACNA2D3 / RFU, DTX4 / Fold change vs veh, DTX4 / RFU, TFCP2 / Fold change vs veh, TFCP2 / RFU, GMCL1 /// GMCL1P1 / Fold change vs veh, GMCL1 /// GMCL1P1 / RFU, AEBP2 / Fold change vs veh, AEBP2 / RFU, SNHG1 /// SNORD22 /// SNORD25 /// SNORD26 /// SNORD27 /// SNORD28 /// SNORD29 /// SNORD31 / Fold change vs veh, SNHG1 /// SNORD22 /// SNORD25 /// SNORD26 /// SNORD27 /// SNORD28 /// SNORD29 /// SNORD31 / Fold change (Aza/veh), C12orf56 (ProbeSet 11735607_a_at) / Fold change (ACY-1035/veh), C12orf56 (ProbeSet 11735607_a_at) / Fold change (Aza/veh), FGFR1OP (ProbeSet 11751329_s_at) / Fold change (ACY-1035/veh), FGFR1OP (ProbeSet 11751329_s_at) / Fold change (Aza/veh), VPS36 (ProbeSet 11739960_a_at) / Fold change (ACY-1035/veh), VPS36 (ProbeSet 11739960_a_at) / RFU SYPL1 (11715823_x_at) / Fold change /veh SYPL1 (11715823_x_at) / RFU IGFBP7 (11715501_s_at) / Fold change /veh IGFBP7 (11715501_s_at) / RFU REEP3 (11722064_at) / Fold change /veh REEP3 (11722064_at) / RFU IGLL1 (11728026_x_at) / Fold change /veh IGLL1 (11728026_x_at): dose or concentration left out as unconfirmed
Conditions: MV-4-11 cells, 48 hours

SMILES: Nc1ccc(-c2cccs2)cc1NC(=O)c1ccc2c(c1)cc(C1CC1)n2CCN1CCOCC1 [ACY-1035]
- RFU TMEM200A (11744735_a_at): 5.05 RFU

— PMC5218480 (PLoS ONE, 2017)
